{
  "source": "patent US20070135509A1",
  "about": "“Indolone compounds useful to treat cognitive impairment” (priority 2005, published 2007)",
  "key": {"C57BL/6 mice [1]": {"system": "C57BL/6 mice", "assay": "Object recognition (novel object recognition memory)", "assay_type": "in vivo", "conditions": "for Discrimination Index (DI), 24 hour object recognition: mean±SEM, vehicle -10.2±4", "from_the_text": "Object Recognition. […] This task relies on the natural curiosity of rodents to explore novel objects in their environments more than familiar ones. Obviously, for an object to be “familiar,” the animal must have attended to it before and remembered that experience.\nDuring training, a mouse is presented with two identical, novel objects. Mice explore them equally by approaching, sniffing and crawling over them. During testing, the animal is presented with the training object and a second, novel one. Memory of the training object renders it familiar to the animal, and it then spends more time exploring the new novel object rather than the familiar one (Bourtchouladze t al., 2003). […] Consistent with these findings, rats with the PFC lesions show poor working memory when they are required to discriminate between familiar and novel objects (Mitchell, 1998).\n(§1) Subjects. Young-adult (10-12 weeks old) C57B1/6 male mice (Taconic, N.Y.) were used. The mice were housed (5 mice) in standard laboratory cages and maintained on a 12:12 light-dark cycle. The experiments were always conducted during the light phase of the cycle. The day before the initiation of the experiment, mice were housed single in individual cages and maintained so until the end of the experiment. With the exception of testing times, the mice had liberal access to food and water. The experiments were conducted in accordance with Animal Welfare Assurance #A3280-01. Animals were maintained in accordance with the Animal Welfare Act and Department of Health and Human Services Guide.\nObject Recognition Training and Testing. […]\nObject Recognition Data Analysis. […] Types were reviewed by a blinded observer and the following behavioral parameters were determined: time of exploration of an each object; the total time of exploration of the objects; number of approaches to the objects; and time (latency) to first approach to an object. The discrimination index—memory score—was determined as described previously (Ennaceur et al., 1997, Bourtchouladze et al., 2003). […] All values in the text and figures are expressed as mean±SEM. […]"}, "C57BL/6 mice [2]": {"system": "C57BL/6 mice", "assay": "Contextual fear conditioning (contextual memory, freezing to context)", "assay_type": "in vivo", "conditions": "for 24 h contextual memory (freezing) / freezing to context 24 hr after training: mean±SEM; for 24 h contextual memory (freezing): controls 22.3±3.2%; for freezing to context 24 hr after training: controls 24.5±3.2%", "from_the_text": "Contextual Memory. Contextual memory is a form of Pavlovian fear conditioning in which a naïve mouse is placed into a novel chamber (context) containing distinct visual, olfactory and tactile cues. After a few seconds of acclimation, the mouse receives a brief, mild electric shock to its feet. From this negative experience, the mouse will remember for months that that chamber is dangerous. When placed back into the same context at some later time after training, the mouse's natural response to danger is to “freeze,” sitting stone still for many seconds. This is similar to what happens to humans when they experience fear. The percent of time during an observation period that the mouse spends frozen represents a quantitative measure (memory score) of its memory of the context.\nas §1\nContextual Conditioning Training and Testing. To assess contextual memory, a standardized contextual fear conditioning task originally developed for evaluation of memory in cyclic AMP response element binding protein (“CREB”) knock-out mice was used (Bourtchouladze et al., 1994). On the training day, the mouse was placed into the conditioning chamber (Med Associates, Inc., VA) for 2 minutes before the onset of unconditioned stimulus (US), 0.5 mA, of 2 second foot shock. The US was repeated two times with a 1 min inter-trial interval between shocks. Training was performed by automated software package (Med Associates, Inc., VA). After the last training trial, the mice were left in the conditioning chamber for another 30 seconds and were then placed back in their home cages. 24 hours after training, the mouse was placed into the same training chamber and contextual memory was assessed by scoring freezing behavior (‘freezing’ serves as memory score). Freezing was defined as the complete lack of movement in intervals of 5 seconds (Kim et al., 1993; Phillips & LeDoux, 1992; Bourtchouladze et al., 1994; 1998; Abel et al., 1997). Total testing time lasted 3 minutes. After each experimental subject, the experimental apparatus was thoroughly cleaned with 75% ethanol, water, dried, and ventilated for a few minutes.\nContextual Conditioning Data Analysis. All experiments were designed and performed in a balanced fashion, meaning that (i) for each experimental condition (e.g. a specific dose-effect) we used an equal number of experimental and control mice; (ii) each experimental condition was replicated 2-3 independent times, and replicate days were added to generate final number of subjects. The proceeding of each experiment was filmed. In each experiment, the experimenter was unaware (blind) to the treatment of the subjects during training and testing. Data were analyzed by Student's unpaired t test using a software package (Statwiew 5.0.1; SAS Institute, Inc). All values in the text and figures are expressed as mean±SEM.\nDrug Compound Administration. Compound 2 was freshly prepared from a stock solution (10 mg/ml DMSO), which was maintained at 4° C. Compound 2 was dissolved in a suspension of 5% DMSO and 95% CMC at 2% in water and administered intraperitoneally (I.P.) at doses 5 mg/kg; 10 mg/kg and 30 mg/kg 20 min before training or at 1 mg/kg and 30 mg/kg orally 60 min before training. Control animals received vehicle alone (5% DMSO and 95% CMC at 2% in water). […]"}},
  "data": [
    {"molecule": "O=C1C(=Nc2cccc(C(F)(F)F)c2)c2ccccc2N1c1ccccc1", "note": "[Compound 2, 1-PHENYL-3-[[3-(TRIFLUOROMETHYL)PHENYL]IMINO]-1,3-DIHYDRO-2H-INDOL-2-ONE]", "values": [
      {"measurement": "Effect on object recognition memory in mice (FIG. 3)", "setting": "C57BL/6 mice [1]; 1 mg/kg and 5 mg/kg i.p. twenty (20) minutes before training, C57BL/6 mice", "result": "ameliorated long-term memory deficit"},
      {"measurement": "Discrimination Index (DI), 24 hour object recognition", "setting": "C57BL/6 mice [1]; 1 mg/kg i.p. 20 minutes before 15-minute training, p<0.05", "result": "5.1±6"},
      {"measurement": "Discrimination Index (DI), 24 hour object recognition", "setting": "C57BL/6 mice [1]; 5 mg/kg i.p. 20 minutes before 15-minute training, p<0.0005", "result": "18.8±6.6"},
      {"measurement": "24 h contextual memory (freezing)", "setting": "C57BL/6 mice [2]; 1 mg/kg oral 60 min before training, p<0.01", "result": "36.4±3.9", "unit": "%"},
      {"measurement": "freezing to context 24 hr after training", "setting": "C57BL/6 mice [2]; 5 mg/kg I.P. 20 min before training, p<0.05", "result": "40.3±4.7", "unit": "%"},
      {"measurement": "Effects on contextual memory in mice (FIG. 1)", "setting": "C57BL/6 mice [2]; 5 mg/kg, 10 mg/kg and 30 mg/kg i.p., 24 hours after training", "result": "significantly facilitated freezing to context"},
      {"measurement": "freezing to context 24 hr after training", "setting": "C57BL/6 mice [2]; 10 mg/kg I.P. 20 min before training, p<0.01", "result": "51.4±9.1", "unit": "%"},
      {"measurement": "freezing to context 24 hr after training", "setting": "C57BL/6 mice [2]; 30 mg/kg I.P. 20 min before training, p<0.001", "result": "49.1±3.7", "unit": "%"},
      {"measurement": "24 h contextual memory (freezing)", "setting": "C57BL/6 mice [2]; 30 mg/kg oral 60 min before training, p<0.05", "result": "34.1±4.3", "unit": "%"},
      {"measurement": "Effects on contextual memory in mice (FIG. 2)", "setting": "C57BL/6 mice [2]; single dose of 1 mg/kg or 30 mg/kg orally, 24 hr", "result": "significantly enhanced 24 hr contextual memory"}
    ]}
  ]
}
